In BindingDB's records for doi:10.1021/jm00034a008 (Ciba-Geigy, 1994) one finds IC50 data, which are given here for 7 compounds.

The target in test [1] is Purine nucleoside phosphorylase (Bos taurus) (UniProt P55859). Nature of the test: Inhibition of calf spleen PNP (purine nucleoside phosphorylase) in 1 mM phosphate.
Test [2] has the same target. As to the kind of experiment: Inhibition of calf spleen PNP (purine nucleoside phosphorylase) in 50 mM phosphate.

Purine nucleoside phosphorylase (Bos taurus), sequence (P55859 whole entry, looked up): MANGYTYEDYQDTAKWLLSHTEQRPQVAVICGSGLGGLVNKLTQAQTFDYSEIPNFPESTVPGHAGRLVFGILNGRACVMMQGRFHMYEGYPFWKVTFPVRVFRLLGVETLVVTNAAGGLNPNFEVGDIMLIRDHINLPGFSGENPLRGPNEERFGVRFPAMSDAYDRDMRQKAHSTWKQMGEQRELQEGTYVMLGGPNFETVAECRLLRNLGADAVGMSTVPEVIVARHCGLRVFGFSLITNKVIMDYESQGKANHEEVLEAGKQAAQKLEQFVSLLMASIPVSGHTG

Regarding `CC(C)(CCS)CCn1cnc2c(=S)[nH]c(N)nc21` [2-Amino-9-(5-mercapto-3,3-dimethyl-pentyl)-1,9-dihydro-purine-6-thione], the results for the IC50 in test [1] and in test [2] were 50 µM and 95 µM, respectively.

Consider `CC(C)(CCn1cnc2c(=O)[nH]c(N)nc21)CCS(N)(=O)=O` [5-(2-Amino-6-oxo-1,6-dihydro-purin-9-yl)-3,3-dimethyl-pentane-1-sulfonic acid amide], for which the IC50 in test [1] is 100 µM; in test [2], above 300 µM.

Consider `CC(C)(CCn1cnc2c(=O)[nH]c(N)nc21)CCS(=O)(=O)O` [5-(2-Amino-6-oxo-1,6-dihydro-purin-9-yl)-3,3-dimethyl-pentane-1-sulfonic acid], for which the IC50 is 0.18 µM in test [1] and 9 µM in test [2].

On to `CC(C)(CCC#N)CCn1cnc2c(=O)[nH]c(N)nc21` [6-(2-Amino-6-oxo-1,6-dihydro-purin-9-yl)-4,4-dimethyl-hexanenitrile], for which the IC50 in test [1] was 260 µM; in test [2], above 300 µM.

For `CC(C)(CCC(N)=O)CCn1cnc2c(=O)[nH]c(N)nc21` [6-(2-Amino-6-oxo-1,6-dihydro-purin-9-yl)-4,4-dimethyl-hexanoic acid amide], the values for the concentration for half-maximal inhibition (IC50) in test [1] and in test [2] were 200 µM and above 300 µM, respectively.

Turning to `CC(C)(CCC(=O)O)CCn1cnc2c(=O)[nH]c(N)nc21` [6-(2-Amino-6-oxo-1,6-dihydro-purin-9-yl)-4,4-dimethyl-hexanoic acid], the results for the IC50 in test [1] and in test [2] were 8 µM and 290 µM, respectively.

Regarding `CC(C)(CCn1cnc2c(=O)[nH]c(N)nc21)CCP(=O)(O)O` [[5-(2-Amino-6-oxo-1,6-dihydro-purin-9-yl)-3,3-dimethyl-pentyl]-phosphonic acid], the IC50 worked out at 0.044 µM in test [1] and 2 µM in test [2].
